Results reported in ChEMBL document CHEMBL3797052 (Eur J Med Chem, 2016).
pIC50: −log10 of the molar value.

System: HT-29
Test: Antiproliferative activity against human HT-29 cells assessed as cell growth at 10^-8 M after 48 hrs by sulforhodamine B assay
Assay type: functional
Settings: HT-29, 48 h, read-out: Activity
CNC(=O)c1cc(Oc2ccc3nc(NC(=O)Nc4ccc(Cl)c(Cl)c4)sc3c2)ccn1 gave a growth at 0.01 µM of 107%.

System: NCI-H322M
Test: Antiproliferative activity against human NCI-H322M cells assessed as cell growth at 10^-4 M after 48 hrs by sulforhodamine B assay
Assay type: functional
Settings: read-out: Activity
CNC(=O)c1cc(Oc2ccc3nc(NC(=O)Nc4ccc(Cl)c(Cl)c4)sc3c2)ccn1 showed a growth at 100 µM of 4%.

System: not listed separately
Test: Antiproliferative activity against human OVCAR3 cells assessed as cell growth at 10^-4 M after 48 hrs by sulforhodamine B assay
Assay type: functional
Settings: OVCAR-3, 48 h, read-out: Activity
Compound CNC(=O)c1cc(Oc2ccc3nc(NC(=O)Nc4ccc(Cl)c(Cl)c4)sc3c2)ccn1 has a growth at 100 µM of -24%.

Target: Serine/threonine-protein kinase B-raf (Homo sapiens, UniProt P15056, V600E)
Sequence (P15056 2-766 V600E limits assumed): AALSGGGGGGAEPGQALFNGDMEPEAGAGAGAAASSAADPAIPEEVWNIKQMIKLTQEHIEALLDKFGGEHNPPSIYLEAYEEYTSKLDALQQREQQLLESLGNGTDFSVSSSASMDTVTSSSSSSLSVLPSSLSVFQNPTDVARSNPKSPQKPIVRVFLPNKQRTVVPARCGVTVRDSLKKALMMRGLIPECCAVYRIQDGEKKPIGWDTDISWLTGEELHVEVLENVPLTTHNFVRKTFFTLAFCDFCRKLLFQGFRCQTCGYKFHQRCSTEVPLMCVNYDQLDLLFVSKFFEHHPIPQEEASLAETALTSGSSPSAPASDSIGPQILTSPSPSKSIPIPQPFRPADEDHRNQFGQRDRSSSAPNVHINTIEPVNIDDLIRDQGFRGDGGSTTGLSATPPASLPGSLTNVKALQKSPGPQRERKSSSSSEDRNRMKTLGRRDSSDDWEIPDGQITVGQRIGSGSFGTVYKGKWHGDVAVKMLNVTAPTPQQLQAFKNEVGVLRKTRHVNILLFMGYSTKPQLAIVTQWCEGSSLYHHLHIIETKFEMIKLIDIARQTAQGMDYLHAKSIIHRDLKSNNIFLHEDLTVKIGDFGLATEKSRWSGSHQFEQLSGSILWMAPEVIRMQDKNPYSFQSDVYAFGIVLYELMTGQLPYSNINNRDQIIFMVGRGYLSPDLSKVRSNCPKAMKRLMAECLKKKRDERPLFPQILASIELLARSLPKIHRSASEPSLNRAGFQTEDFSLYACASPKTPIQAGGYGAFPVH
Test: Inhibition of BRAF V600E mutant (unknown origin) measured after 40 mins by scintillation counting
Settings: not given
CNC(=O)c1cc(Oc2ccc3nc(NC(=O)Nc4ccc(Cl)c(Cl)c4)sc3c2)ccn1 gave a pIC50 of 7.02.

System: not listed separately
Test: Antiproliferative activity against human RXF393 cells assessed as cell growth at 10^-6 M after 48 hrs by sulforhodamine B assay
Assay type: functional
Settings: RXF 393, 48 h, read-out: Activity
CNC(=O)c1cc(Oc2ccc3nc(NC(=O)Nc4ccc(Cl)c(Cl)c4)sc3c2)ccn1 gave a growth at 1 µM of 94%.

System: not listed separately
Test: Antiproliferative activity against human UACC62 cells assessed as cell growth at 10^-7 M after 48 hrs by sulforhodamine B assay
Assay type: functional
Settings: UACC-62, 48 h, read-out: Activity
CNC(=O)c1cc(Oc2ccc3nc(NC(=O)Nc4ccc(Cl)c(Cl)c4)sc3c2)ccn1 showed a growth at 0.1 µM of 95%.

System: SK-MEL-5
Test: Antiproliferative activity against human SK-MEL-5 cells assessed as growth inhibition after 48 hrs by sulforhodamine B assay
Assay type: functional
Settings: SK-MEL-5, 48 h
Compound CNC(=O)c1cc(Oc2ccc3nc(NC(=O)Nc4ccc(Cl)c(Cl)c4)sc3c2)ccn1 has a GI50 of 2.24 µM and a TGI of 5.58 µM.

Same assay, conditions: SK-MEL-5, 48 h, read-out: LC50 (the source's name)
In the case of CNC(=O)c1cc(Oc2ccc3nc(NC(=O)Nc4ccc(Cl)c(Cl)c4)sc3c2)ccn1, the CC50 was over 100 µM.

System: U-251
Test: Antiproliferative activity against human U251 cells assessed as cell growth at 10^-8 M after 48 hrs by sulforhodamine B assay
Assay type: functional
Settings: U-251, 48 h, read-out: Activity
For CNC(=O)c1cc(Oc2ccc3nc(NC(=O)Nc4ccc(Cl)c(Cl)c4)sc3c2)ccn1, the growth at 0.01 µM was 98%.

System: ACHN
Test: Antiproliferative activity against human ACHN cells assessed as cell growth at 10^-4 M after 48 hrs by sulforhodamine B assay
Assay type: functional
Settings: read-out: Activity
Work on CNC(=O)c1cc(Oc2ccc3nc(NC(=O)Nc4ccc(Cl)c(Cl)c4)sc3c2)ccn1 yielded a growth at 100 µM of -18%.

System: not listed separately
Test: Antiproliferative activity against human HOP62 cells assessed as cell growth at 10^-4 M after 48 hrs by sulforhodamine B assay
Assay type: functional
Settings: HOP-62, 48 h, read-out: Activity
In the case of CNC(=O)c1cc(Oc2ccc3nc(NC(=O)Nc4ccc(Cl)c(Cl)c4)sc3c2)ccn1, the growth at 100 µM was -85%.

System: not listed separately
Test: Antiproliferative activity against human HL-60(TB) cells assessed as cell growth at 10^-4 M after 48 hrs by sulforhodamine B assay
Assay type: functional
Settings: HL-60, 48 h, read-out: Activity
Compound CNC(=O)c1cc(Oc2ccc3nc(NC(=O)Nc4ccc(Cl)c(Cl)c4)sc3c2)ccn1 has a growth at 100 µM of 89%.

System: NCI-H522
Test: Antiproliferative activity against human NCI-H522 cells assessed as cell growth at 10^-6 M after 48 hrs by sulforhodamine B assay
Assay type: functional
Settings: NCI-H522, 48 h, read-out: Activity
Compound CNC(=O)c1cc(Oc2ccc3nc(NC(=O)Nc4ccc(Cl)c(Cl)c4)sc3c2)ccn1 has a growth at 1 µM of 97%.

System: not listed separately
Test: Antiproliferative activity against human SW620 cells assessed as cell growth at […] M after 48 hrs by sulforhodamine B assay
Assay type: functional
Settings: SW-620, 48 h, read-out: Activity
Work on CNC(=O)c1cc(Oc2ccc3nc(NC(=O)Nc4ccc(Cl)c(Cl)c4)sc3c2)ccn1 yielded a growth at 0.01 µM of 102%.

System: not listed separately
Test: Antiproliferative activity against human HCT116 cells assessed as cell growth at 10^-4 M after 48 hrs by sulforhodamine B assay
Assay type: functional
Settings: HCT-116, 48 h, read-out: Activity
In the case of CNC(=O)c1cc(Oc2ccc3nc(NC(=O)Nc4ccc(Cl)c(Cl)c4)sc3c2)ccn1, the growth at 100 µM was -54%.

System: MDA-MB-468
Test: Antiproliferative activity against human MDA-MB-468 cells assessed as cell growth at 10^-7 M after 48 hrs by sulforhodamine B assay
Assay type: functional
Settings: MDA-MB-468, 48 h, read-out: Activity
Work on CNC(=O)c1cc(Oc2ccc3nc(NC(=O)Nc4ccc(Cl)c(Cl)c4)sc3c2)ccn1 yielded a growth at 0.1 µM of 91%.

System: not listed separately
Test: Antiproliferative activity against human TK10 cells assessed as cell growth at 10^-7 M after 48 hrs by sulforhodamine B assay
Assay type: functional
Settings: TK-10, 48 h, read-out: Activity
With CNC(=O)c1cc(Oc2ccc3nc(NC(=O)Nc4ccc(Cl)c(Cl)c4)sc3c2)ccn1 the growth at 0.1 µM was 112%.

System: not listed separately
Test: Antiproliferative activity against human SW620 cells assessed as growth inhibition after 48 hrs by sulforhodamine B assay
Assay type: functional
Settings: SW-620, 48 h
CNC(=O)c1cc(Oc2ccc3nc(NC(=O)Nc4ccc(Cl)c(Cl)c4)sc3c2)ccn1 showed a GI50 of 8.11 µM and a TGI of over 100 µM.

Same assay, conditions: SW-620, 48 h, read-out: LC50 (the source's name)
Work on CNC(=O)c1cc(Oc2ccc3nc(NC(=O)Nc4ccc(Cl)c(Cl)c4)sc3c2)ccn1 yielded a CC50 of over 100 µM.

System: NCI-H23
Test: Antiproliferative activity against human NCI-H23 cells assessed as cell growth at 10^-7 M after 48 hrs by sulforhodamine B assay
Assay type: functional
Settings: NCI-H23, 48 h, read-out: Activity
Compound CNC(=O)c1cc(Oc2ccc3nc(NC(=O)Nc4ccc(Cl)c(Cl)c4)sc3c2)ccn1 has a growth at 0.1 µM of 92%.
